Reference: PubChem BioAssay AID256 (DTP/NCI, 2004)
“And” between values parts separate entries of the source, which are not always exact repeats. Equal entries are not always repeated. Inconclusive results and toxic doses are left out.

Test system: CD2F1 mice, L1210 leukemia ip, survival T/C
Experiment: NCI In Vivo Anticancer Drug Screen. Data for tumor model L1210 Leukemia (intraperitoneal) in CD2F1 (CDF1) mice
Settings: higher = longer survival
How it was run: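 Implant tumor; dose compound or vehicle; measure endpoint in both groups; report treated divided by control.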

Compound: CN1N=C(N)c2cn(C3OC(COP(=O)(O)O)C(O)C3O)c3ncnc1c23 (configuration not stated)
- T/C (endpoint: mean survival time, dose: 6.25 mg/kg/injection, schedule: Q01DX009 (ip), vehicle: water): 123 % of control
- T/C (endpoint: mean survival time, dose: 7.81 mg/kg/injection, schedule: Q01DX005 (iv), vehicle: water): 109 % of control
- T/C (endpoint: mean survival time, dose: 10.0 mg/kg/injection, schedule: Q01DX005 (ip), vehicle: water): 150 % of control
- T/C (endpoint: mean survival time, dose: 11.73 mg/kg/injection, schedule: Q01DX005 (iv), vehicle: water): 112 % of control
- T/C (endpoint: mean survival time, dose: 12.5 mg/kg/injection, schedule: Q01DX009 (ip), vehicle: water): 155 % of control
- T/C (endpoint: mean survival time, dose: 15.63 mg/kg/injection, schedule: Q01DX005 (iv), vehicle: water): 114 % of control
- T/C (endpoint: mean survival time, dose: 20.0 mg/kg/injection, schedule: Q01DX005 (ip), vehicle: water): 152 % of control
- T/C (endpoint: mean survival time, dose: 23.45 mg/kg/injection, schedule: Q01DX005 (iv), vehicle: water): 119 % of control
- T/C (endpoint: mean survival time, dose: 23.45 mg/kg/injection, schedule: Q01DX009 (ip), vehicle: water): 153 % of control
- T/C (endpoint: mean survival time, dose: 31.25 mg/kg/injection, schedule: Q01DX009 (ip), vehicle: water): 159 % of control
- T/C (endpoint: mean survival time, dose: 40.0 mg/kg/injection, schedule: Q01DX005 (ip), vehicle: water): 157 % of control and 163 % of control
- T/C (endpoint: mean survival time, dose: 46.9 mg/kg/injection, schedule: Q01DX005 (iv), vehicle: water): 151 % of control
- T/C (endpoint: mean survival time, dose: 46.9 mg/kg/injection, schedule: Q01DX009 (ip), vehicle: water): 156 % of control and 174 % of control
- T/C (endpoint: mean survival time, dose: 62.5 mg/kg/injection, schedule: Q01DX005 (iv), vehicle: water): 157 % of control
- T/C (endpoint: mean survival time, dose: 62.5 mg/kg/injection, schedule: Q01DX009 (ip), vehicle: water): 161 % of control
- T/C (endpoint: mean survival time, dose: 80.0 mg/kg/injection, schedule: Q01DX005 (ip), vehicle: water): 163 % of control and 195 % of control
- T/C (endpoint: median survival time, dose: 6.25 mg/kg/injection, schedule: Q03HX024 (ip), vehicle: alkali diluted with water): 156 % of control
- T/C (endpoint: median survival time, dose: 12.5 mg/kg/injection, schedule: Q03HX024 (ip), vehicle: alkali diluted with water): 97 % of control
- T/C (endpoint: median survival time, dose: 24.0 mg/kg/injection, schedule: Q01DX005 (ip), vehicle: water): 150 % of control
- T/C (endpoint: median survival time, dose: 24.0 mg/kg/injection, schedule: Q01DX009 (ip), vehicle: water): 157 % of control
- T/C (endpoint: median survival time, dose: 25.0 mg/kg/injection, schedule: Q01DX001 (ip), vehicle: alkali diluted with water): 97 % of control
- T/C (endpoint: median survival time, dose: 25.0 mg/kg/injection, schedule: Q01DX009 (ip), vehicle: alkali diluted with water): 168 % of control
- T/C (endpoint: median survival time, dose: 25.0 mg/kg/injection, schedule: Q04DX003 (ip), vehicle: alkali diluted with water): 151 % of control
- T/C (endpoint: median survival time, dose: 35.0 mg/kg/injection, schedule: Q01DX001 (ip), vehicle: water): 120 % of control
- T/C (endpoint: median survival time, dose: 35.0 mg/kg/injection, schedule: Q01DX005 (oral), vehicle: water): 95 % of control
- T/C (endpoint: median survival time, dose: 35.0 mg/kg/injection, schedule: Q01DX009 (ip), vehicle: water): 167 % of control
- T/C (endpoint: median survival time, dose: 35.0 mg/kg/injection, schedule: Q01DX009 (oral), vehicle: water): 108 % of control
- T/C (endpoint: median survival time, dose: 50.0 mg/kg/injection, schedule: Q01DX001 (ip), vehicle: alkali diluted with water): 96 % of control
- T/C (endpoint: median survival time, dose: 50.0 mg/kg/injection, schedule: Q01DX009 (ip), vehicle: alkali diluted with water): 187 % of control
- T/C (endpoint: median survival time, dose: 50.0 mg/kg/injection, schedule: Q04DX003 (ip), vehicle: alkali diluted with water): 151 % of control
- T/C (endpoint: median survival time, dose: 53.0 mg/kg/injection, schedule: Q01DX001 (ip), vehicle: water): 112 % of control
- T/C (endpoint: median survival time, dose: 53.0 mg/kg/injection, schedule: Q01DX001 (oral), vehicle: water): 105 % of control
- T/C (endpoint: median survival time, dose: 53.0 mg/kg/injection, schedule: Q01DX005 (iv), vehicle: water): 155 % of control
- T/C (endpoint: median survival time, dose: 53.0 mg/kg/injection, schedule: Q01DX005 (oral), vehicle: water): 101 % of control
- T/C (endpoint: median survival time, dose: 53.0 mg/kg/injection, schedule: Q01DX009 (ip), vehicle: water): 182 % of control
- T/C (endpoint: median survival time, dose: 53.0 mg/kg/injection, schedule: Q01DX009 (oral), vehicle: water): 101 % of control
- T/C (endpoint: median survival time, dose: 80.0 mg/kg/injection, schedule: Q01DX001 (oral), vehicle: water): 103 % of control
- T/C (endpoint: median survival time, dose: 80.0 mg/kg/injection, schedule: Q01DX005 (ip), vehicle: water): 155 % of control
- T/C (endpoint: median survival time, dose: 80.0 mg/kg/injection, schedule: Q01DX005 (iv), vehicle: water): 158 % of control
- T/C (endpoint: median survival time, dose: 80.0 mg/kg/injection, schedule: Q01DX005 (oral), vehicle: water): 102 % of control
- T/C (endpoint: median survival time, dose: 80.0 mg/kg/injection, schedule: Q01DX009 (ip), vehicle: water): 185 % of control
- T/C (endpoint: median survival time, dose: 80.0 mg/kg/injection, schedule: Q01DX009 (oral), vehicle: water): 106 % of control
- T/C (endpoint: median survival time, dose: 100.0 mg/kg/injection, schedule: Q01DX001 (ip), vehicle: alkali diluted with water): 96 % of control
- T/C (endpoint: median survival time, dose: 100.0 mg/kg/injection, schedule: Q01DX009 (ip), vehicle: alkali diluted with water): 200 % of control
- T/C (endpoint: median survival time, dose: 100.0 mg/kg/injection, schedule: Q01DX009 (oral), vehicle: alkali diluted with water): 104 % of control
- T/C (endpoint: median survival time, dose: 100.0 mg/kg/injection, schedule: Q04DX003 (ip), vehicle: alkali diluted with water): 162 % of control
- T/C (endpoint: median survival time, dose: 120.0 mg/kg/injection, schedule: Q01DX001 (oral), vehicle: water): 105 % of control
- T/C (endpoint: median survival time, dose: 120.0 mg/kg/injection, schedule: Q01DX005 (ip), vehicle: water): 161 % of control
- T/C (endpoint: median survival time, dose: 120.0 mg/kg/injection, schedule: Q01DX005 (oral), vehicle: water): 105 % of control
- T/C (endpoint: median survival time, dose: 120.0 mg/kg/injection, schedule: Q01DX009 (ip), vehicle: water): 150 % of control
- T/C (endpoint: median survival time, dose: 120.0 mg/kg/injection, schedule: Q01DX009 (oral), vehicle: water): 103 % of control
- T/C (endpoint: median survival time, dose: 180.0 mg/kg/injection, schedule: Q01DX001 (oral), vehicle: water): 101 % of control
- T/C (endpoint: median survival time, dose: 180.0 mg/kg/injection, schedule: Q01DX005 (oral), vehicle: water): 107 % of control
- T/C (endpoint: median survival time, dose: 180.0 mg/kg/injection, schedule: Q01DX009 (oral), vehicle: water): 102 % of control
- T/C (endpoint: median survival time, dose: 200.0 mg/kg/injection, schedule: Q01DX009 (oral), vehicle: alkali diluted with water): 103 % of control
- T/C (endpoint: median survival time, dose: 200.0 mg/kg/injection, schedule: Q04DX003 (ip), vehicle: alkali diluted with water): 150 % of control
- T/C (endpoint: median survival time, dose: 270.0 mg/kg/injection, schedule: Q01DX001 (oral), vehicle: water): 101 % of control
- T/C (endpoint: median survival time, dose: 270.0 mg/kg/injection, schedule: Q01DX005 (oral), vehicle: water): 110 % of control
- T/C (endpoint: median survival time, dose: 270.0 mg/kg/injection, schedule: Q01DX009 (oral), vehicle: water): 112 % of control
- T/C (endpoint: median survival time, dose: 400.0 mg/kg/injection, schedule: Q01DX009 (oral), vehicle: alkali diluted with water): 114 % of control
- T/C (endpoint: median survival time, dose: 405.0 mg/kg/injection, schedule: Q01DX001 (oral), vehicle: water): 102 % of control
- T/C (endpoint: median survival time, dose: 800.0 mg/kg/injection, schedule: Q01DX009 (oral), vehicle: alkali diluted with water): 120 % of control
- T/C (endpoint: median survival time, dose: 1600.0 mg/kg/injection, schedule: Q01DX009 (oral), vehicle: alkali diluted with water): 122 % of control

Compound: O=C(O)c1cc(-c2ccc(Cl)cc2)nc2c(Cl)cc(Cl)cc12
- T/C (endpoint: mean survival time, dose: 100.0 mg/kg/injection, schedule: Q01DX001 (ip), vehicle: saline): 101 % of control
- T/C (endpoint: mean survival time, dose: 200.0 mg/kg/injection, schedule: Q01DX001 (ip), vehicle: saline): 97 % of control
- T/C (endpoint: mean survival time, dose: 400.0 mg/kg/injection, schedule: Q01DX001 (ip), vehicle: saline): 100 % of control

Compound: CCCCCC1c2cc(O)ccc2OC1N1CCOCC1 (configuration not stated)
- T/C (endpoint: median survival time, dose: 12.0 mg/kg/injection, schedule: Q01DX009 (ip), vehicle: saline with Tween-80): 108 % of control
- T/C (endpoint: median survival time, dose: 25.0 mg/kg/injection, schedule: Q01DX009 (ip), vehicle: saline with Tween-80): 106 % of control
- T/C (endpoint: median survival time, dose: 50.0 mg/kg/injection, schedule: Q01DX009 (ip), vehicle: saline with Tween-80): 97 % of control
- T/C (endpoint: median survival time, dose: 100.0 mg/kg/injection, schedule: Q01DX009 (ip), vehicle: saline with Tween-80): 102 % of control
- T/C (endpoint: median survival time, dose: 200.0 mg/kg/injection, schedule: Q01DX009 (ip), vehicle: saline with Tween-80): 98 % of control

Compound: CNC(=O)OCC(COc1cc(C)ccc1C(C)C)OC(=O)NC (configuration not stated)
- T/C (endpoint: mean survival time, dose: 100.0 mg/kg/injection, schedule: Q04DX002 (ip), vehicle: saline with Tween-80): 86 % of control
- T/C (endpoint: mean survival time, dose: 200.0 mg/kg/injection, schedule: Q04DX002 (ip), vehicle: saline with Tween-80): 93 % of control
- T/C (endpoint: mean survival time, dose: 400.0 mg/kg/injection, schedule: Q04DX002 (ip), vehicle: saline with Tween-80): 89 % of control

Compound: O=C(CSC1=NCCN1)c1ccccc1
- T/C (endpoint: mean survival time, dose: 12.5 mg/kg/injection, schedule: Q01DX009 (ip), vehicle: saline): 101 % of control
- T/C (endpoint: mean survival time, dose: 25.0 mg/kg/injection, schedule: Q01DX009 (ip), vehicle: saline): 101 % of control
- T/C (endpoint: mean survival time, dose: 50.0 mg/kg/injection, schedule: Q01DX009 (ip), vehicle: saline): 102 % of control

Compound: [Cl][Pt+2][Cl].[NH-]Nc1nc2ccccc2s1.[NH-]Nc1nc2ccccc2s1
- T/C (endpoint: mean survival time, dose: 5.0 mg/kg/injection, schedule: Q04DX003 (ip), vehicle: saline with Tween-80): 102 % of control
- T/C (endpoint: mean survival time, dose: 10.0 mg/kg/injection, schedule: Q04DX003 (ip), vehicle: saline with Tween-80): 98 % of control
- T/C (endpoint: mean survival time, dose: 20.0 mg/kg/injection, schedule: Q04DX003 (ip), vehicle: saline with Tween-80): 94 % of control
- T/C (endpoint: mean survival time, dose: 40.0 mg/kg/injection, schedule: Q04DX003 (ip), vehicle: saline with Tween-80): 98 % of control
- T/C (endpoint: mean survival time, dose: 80.0 mg/kg/injection, schedule: Q04DX003 (ip), vehicle: saline with Tween-80): 94 % of control
